Results taken from US9289517B2 (COMMISSARIAT A L'ENERGIE ATOMIQUE ET AUX ENERGIES …, priority 2008, dated 2016).

How the values were obtained:
[1] = Fluorescence level measured under optical device (capillaries); conditions: approximately 25 minutes after first measurement; 2.5 nmoles ICG in water, 0.5 nmoles as nanoemulsions
[2] = Fluorescence quantum yield F; format: physicochemical; conditions: directly, 10 and 40 days after dialysis
[3] = prior-art statement; tissue autofluorescence typically 0.3-0.4 ns; cited from earlier work
[4] = Behaviour in isotonic medium (154 mM sodium chloride); format: physicochemical

indocyanine green [ICG]
fluorescence level over time [1]: reduction over time of the fluorescence level | stability of quantum yield over time [2]: the quantum yield remains stable over time, unlike that of free ICG in water | fluorescence lifetime of ICG [3]: 0.5 ns | behaviour in isotonic medium [4]: flocculates
